Consider two molecules from patent US20130064794A1, “Substituted Carbonyloxymethylphosphoramidate Compounds and Pharmaceutical Compositions for the Treatment of Viral Infections” (IDENIX PHARMACEUTICALS, INC., priority 2011, published 2013).

Molecules are shown by their SMILES.

The nature of data set [1]: Plasma and liver pharmacokinetics following a single oral dose in CD-1 mice. The class given is in vivo. The conditions noted are these: single oral dose in PEG 200, value at 1 μmol/kg; for Ms 2′-F, 2′-MeGTP AUC: mouse liver; for Ms Plasma 2′-F, 2′-MeG AUC / Ms Plasma 2′-F, 2′-MeG Cmax: mouse plasma. The method, then: A single oral dose of Compound 1 at 25 mg/kg in PEG 200 (dose volume 5 mL/kg) was administered to nine CD-1 male mice. Five untreated animals were used for the collection of control plasma and liver. Terminal plasma and liver samples were collected from three animals per time point at 4, 12 and 24 hours post dose. Liver specimens were collected from all animals immediately after the incision. Freezing forceps stored in liquid nitrogen were used to freeze the liver before excision.
Plasma samples were analyzed for 2′-methylguanosine (2′-MeG) by LC-MS/MS. The internal standard (1S) was 2′-MeG-D3. For protein precipitation and extraction, each plasma sample (50 μL) was treated with 500 μL of 0.2% formic acid in acetonitrile and 20 μL of the internal standard working solution. After vortexing and centrifugation, 500 μL of the sample extracts were transferred to a new plate, dried under N2 at ˜28° C. and reconstituted with 75 μL of 0.2% FA in water. The extracts were chromatographed on an Aquasil C18 column using a gradient system of 0.2% formic acid in water and acetonitrile. The analytes were detected and quantified by tandem mass spectrometry in positive ion mode on an MDS Sciex API5000 equipped with a Turbo Ionspray® interface. The calibration range was 0.500 (LLOQ) to 200 ng/mL in mouse plasma. The corresponding range for molar units is 1.68 to 673 pmol/mL.
Liver samples were analyzed for the active species 2′-methylguanosine triphosphate (2′-MeGTP) by LC-MS/MS. 2′-F, 2′-MeGTP levels were assayed by homogenizing (on ice) a known weight of mouse liver with 4× volume of 0.95 M trichloroacetic acid (TCA). Internal standard solution was added to the homogenate followed by neutralization with 20% ammonium hydroxide solution and addition of 500 μL 1% formic acid. The tissue samples were extracted by weak anion exchange solid phase extraction (SPE). Post extraction, the eluates were evaporated under nitrogen, followed by reconstitution before injection onto the LC-MS/MS system. The samples were chromatographed on a Luna NH2 column using a gradient system of ammonium acetate (1 mM to 20 mM and pH 8.0 to pH 10.0) in water and acetonitrile (70:30). The analyte was detected and quantified by tandem mass spectrometry in positive ion mode on an API4000 equipped with a Turbo Ionspray® interface. The calibration range was 10 to 10000 pmol/mL in mouse liver homogenate (50 to 50000 pmol/g of mouse liver).

Data set [2] in a line: Stability in simulated gastric fluid (SGF). The class given is in vitro ADME. The conditions noted are these: 100 μM, 2 hours at 37° C. The method, then: (§1) Simulated gastric and intestinal fluids containing pepsin and pancreatin respectively were prepared according to the U.S. Pharmacopoeia USP291 procedure (www.pharmacopeia.cn/v29240/usp29nf24s0_ris1s126.html). Test compound (final concentration 100 μM) was incubated in duplicate in the appropriate fluid for 2 hours at 37° C. The samples were quenched with 200 μl cold acetonitrile, vortexed for 30 seconds and then centrifuged at 16,100 g for 10 min. The supernatants were analyzed by HPLC on a C-18 column with UV detection at 252 nm. The time 0 samples were prepared by adding SGF or SIF fluid to the quenching solvent followed by the test compound. Stability of the compound was determined by peak area the test compound after incubation and calculated as percent of the peak area observed at time zero.

Data set [3] in a line: Stability in simulated intestinal fluid (SIF). The conditions noted are these: 100 μM, 2 hours at 37° C. The class given is in vitro ADME. The method, then:
as §1

For another data set, the system named is Huh-7 cells. Kind of data set: Release of active metabolite in Huh-7 cells. The class given is in vitro ADME. As to conditions: intracellular triphosphate, 10 μM test compound. The method, then: Huh-7 cells were plated in 1 mL culture medium (DMEM, containing glucose, L-glutamine and sodium pyruvate, 10% FBS, 100 IU/mL penicillin, 100 μg/mL streptomycin, 2 mM GlutaMAX, 1% MEM non-essential amino acids) at the concentration 0.8, 0.4 and 0.2 million cells per well on 6 well plates for 24, 48 and 72 hr treatment, respectively. Plated cells were incubated overnight at 37° C. in an incubator.
The following morning the test compound was diluted to 20 μM from a stock solution in DMSO in fresh culture medium pre-warmed to 37° C. and 1 mL of the solution/well was added to cells. A final medium volume per well was 2.0 mL, the test compound concentration in well was 10 μM and final DMSO concentration was 0.1%.
After 24, 48 or 72 hr, the medium was carefully removed and cell monolayers were washed twice with 2 mL ice-cold PBS per well. Following the last wash, all PBS was carefully removed and 1.0 mL of extraction solution (ice-cold 70% methanol) added. The plate was tightly covered with Parafilm, plastic plate cover and Parafilm again and an intracellular content was extracted at −20° C. for 24 hr.
After 24 hr extracts were transferred into polypropylene microfuge tubes and dry on a refrigerated centrivap concentrator. Dry residues were reconstituted in 250 μL of HPLC-grade water and centrifuged at 16,000×g for 10 min. […]

Another data set relates to fresh human hepatocytes. Kind of data set: Release of active metabolite in fresh human hepatocytes. The class given is in vitro ADME. The conditions noted are these: intracellular triphosphate, 10 μM test compound. The method, then: Plates of fresh human and mouse hepatocytes were obtained on ice. The medium was removed and replaced with hepatocyte culture medium (William's E supplemented with penicillin-streptomycin, 1% L-glutamine, 1% insulin-transferrin-selenium and 0.1 μM Dexamethasone (Invitrogen) or with Invitro GRO HI medium complemented with Torpedo antibiotics (Celsis)). Cells were left overnight in an incubator at 37° C. to acclimatize to culture and the medium.
Hepatocyte incubations were conducted at a final volume of 0.5 mL hepatocyte culture medium/well (0.8 million cells/well for human and 0.5 million cells/well for mouse; 12 well plate no overlay, collagen coat). Culture medium from overnight incubation of cells was removed and replaced with fresh medium, pre-warmed to 37° C., containing 10 μM of the test compound from a stock solution in DMSO (final DMSO concentration was 0.1%). At each specific time point, incubation medium was removed and cell monolayers were carefully washed two times with ice-cold PBS. Following the last wash, all PBS was carefully removed and 1.0 mL of extraction solution (ice-cold 70% methanol/30% water) added. Cells were scraped off and suspended in the extraction solution, transferred to 2 mL polypropylene microfuge tubes and intracellular contents extracted overnight at −20° C.
After the overnight treatment the cellular extracts were prepared by centrifugation at 16,000×g for 10 min to remove cellular debris. The remaining sample was then dried using a refrigerated centrivap concentrator. Dry extracts were reconstituted in 1000 μL of HPLC-grade water and centrifuged at 16,000×g for 10 min. Aliquots (100 μL each) of the supernatant were transferred into a 96 well plate and 2′-C-methyl-adenosine 5′-triphosphate, trisodium salt (4 ng/mL final concentration) was added as the internal standard (1S) for LC-MS/MS analysis.
The incubation time points were 6, 24 and 48 hours for human hepatocytes and 1, 4, 8, 12 and 24 hours for mouse hepatocytes.

Regarding `CCOC(=O)OC(C)OP(=O)(N[C@@H](C)C(=O)OC(C)C)OC[C@H]1O[C@@H](n2cnc3c(OC)nc(N)nc32)[C@](C)(F)[C@@H]1O` (single isomer, unassigned) [Compound 14], in data set [1], the “Ms 2′-F, 2′-MeGTP AUC” value stood at 1900 pmol · hr/g at 1 μmol/kg; the “Ms Plasma 2′-F, 2′-MeG AUC” value came to 150 pmol · hr/mL at 1 μmol/kg; the “Ms Plasma 2′-F, 2′-MeG Cmax” value stood at 14 pmol/mL at 1 μmol/kg. Moreover, the “Percent Remaining, SGF” value in data set [2] is 91%. Moreover, the “Percent Remaining, SIF” value in data set [3] is 39%. Also, the “Huh-7 TP Cmax” value in the data set with Huh-7 cells is reported as 410 pmol/mill cells. Also, in the data set on fresh human hepatocytes, the “FHH TP AUC” value worked out at 4006 pmol.hr/mill cells and the “FHH TP Cmax” value is listed as 155 pmol/mill cells.

As to `CCOC(=O)OC(C)OP(=O)(N[C@@H](C)C(=O)OC(C)C)OC[C@H]1O[C@@H](n2cnc3c(OC)nc(N)nc32)[C@](C)(F)[C@@H]1O` (single isomer, unassigned) [Compound 15], in data set [1], the “Ms 2′-F, 2′-MeGTP AUC” value is on record as 900 pmol · hr/g at 1 μmol/kg; the “Ms Plasma 2′-F, 2′-MeG AUC” value was 130 pmol · hr/mL at 1 μmol/kg; the “Ms Plasma 2′-F, 2′-MeG Cmax” value is reported as 16 pmol/mL at 1 μmol/kg. Also, the “Percent Remaining, SGF” value in data set [2] is 97%. Besides, in data set [3], the “Percent Remaining, SIF” value was 0%. For the same molecule, in the data set with Huh-7 cells, the “Huh-7 TP Cmax” value worked out at 198 pmol/mill cells. In the data set on fresh human hepatocytes, the “FHH TP AUC” value was 4453 pmol.hr/mill cells and the “FHH TP Cmax” value is on record as 139 pmol/mill cells.
